Experimental data as given in patent US20240115654A1, “INTRAVENOUS ADMINISTRATION OF ENGINEERED ANTIMICROBIAL AMPHIPHILIC PEPTIDES” (priority 2021, published 2024).
Like-named read-outs stand apart in the source and are kept apart here. Peptide text beside a SMILES is read from it.

Excerpt: All subjects who met eligibility criteria were confined to the clinical research unit from […] through Day 3. At admission, physical examination, vital signs, 12 lead ECG and weight were obtained, medical and medication history were updated if necessary, safety blood tests (hematology and chemistry), urinalysis, urine drug screen and an alcohol breath test were repeated and a urine pregnancy test was done for women of childbearing potential.
At each dose level, there were 2 sentinel subjects, (1 active, 1 placebo), who were dosed at least 48 hours in advance of the other subjects in their respective group. Following review of safety data, including physical examination, vital signs, and review of adverse events from the first 2 subjects, enrolment in the cohort continued.
A 12-lead ECG was performed on Day 1, within 60 minutes of infusion start (in triplicate), mid-way through the infusion, at the completion of the infusion, 30 minutes after completion of the infusion and at various timepoints following the end of the infusion.
Vital signs were recorded within 60 minutes pre-dose, at the mid-point of the infusion and post dose vitals were assessed at completion of the infusion, 0.5, 1, 2, 3, 4, 6, 9, 12, 24 and 48 hours post dose, after at least 3 minutes of rest in supine position.
Subjects returned to the study center 7 days after dosing, for the termination visit. A full physical examination, vital signs and weight were obtained, concomitant medications were updated if necessary, safety blood specimens (haematology and chemistry, PT and aPTT) and urine were collected for urinalysis and urine drug screening. A serum pregnancy test was done for women of childbearing potential and a 12-lead ECG was performed.
In this study dose limiting toxicity (DLT) was defined as any drug related ≥Grade 3 AEs occurring despite optimal therapeutic interventions (which included but were not limited to allergic/hypersensitivity reactions, dermatological reactions/infusion site reactions, haematological toxicities such as neutropenia, thrombocytopenia and anaemia and clinical chemistry abnormalities) experienced up to Day 7 (Termination Visit).
(§1) All subjects who received any amount of study drug were included in the safety analysis (Safety population).
The study was a double blinded, randomized, placebo-controlled study. The placebo administered was 0.9% sodium chloride.
On Day 1 (day of dosing), subjects were randomly assigned either peptide IV or Placebo IV. At each dose level, there were 2 sentinel subjects, (1 active, 1 placebo), who were dosed at least 48 hours in advance of the other subjects in their respective group. Following review of safety data, including physical examination, vital signs, and review of adverse events from the first 2 subjects, enrolment in the cohort continued. All subjects who met eligibility criteria were confined to the clinical research unit from Day −2 through Day 3. At admission, physical examination, vital signs, 12 lead ECG and weight were obtained, medical and medication history were updated if necessary, safety blood tests (hematology and chemistry), urinalysis, urine drug screen and an alcohol breath test were repeated and a urine pregnancy test was done for women of childbearing potential.
as §1

[1] = Cohort 1: 0.05 mg/kg IV 1-hr infusion (N = 6)
[2] = Cohort 1: 0.05 mg/kg IV 1 hour infusion, subject 001-S008
[3] = Cohort 4 0.05 mg/kg IV 2-hr infusion, participant 001-S086

CC(C)[C@H](NC(=O)[C@H](Cc1c[nH]c2ccccc12)NC(=O)[C@H](CCCNC(=N)N)NC(=O)[C@H](CCCNC(=N)N)NC(=O)[C@@H](NC(=O)[C@@H](NC(=O)[C@H](CCCNC(=N)N)NC(=O)[C@@H](NC(=O)[C@@H](NC(=O)[C@H](CCCNC(=N)N)NC(=O)[C@H](CCCNC(=N)N)NC(=O)[C@H](Cc1c[nH]c2ccccc12)NC(=O)[C@@H](NC(=O)[C@H](CCCNC(=N)N)NC(=O)[C@H](CCCNC(=N)N)NC(=O)[C@@H](NC(=O)[C@H](CCCNC(=N)N)NC(=O)[C@H](CCCNC(=N)N)NC(=O)[C@@H](NC(=O)[C@H](Cc1c[nH]c2ccccc12)NC(=O)[C@H](CCCNC(=N)N)NC(=O)[C@@H](N)CCCNC(=N)N)C(C)C)C(C)C)C(C)C)C(C)C)C(C)C)C(C)C)C(C)C)C(=O)N[C@@H](CCCNC(=N)N)C(=O)N[C@@H](CCCNC(=N)N)C(N)=O [SEQ ID NO: 1] (H-RRWVRRVRRVWRRVVRVVRRWVRR-NH2)
Participants With At Least 1 TEAE, occurrences m [1]: 7 | Participants With At Least 1 Treatment-Related TEAE, n (%) [1]: 1 (16.7%) | Participants With At Least 1 Treatment-Related TEAE, occurrences m [1]: 1 | TEAE Severity Grade 1, m [1]: 7 | TEAE Severity Grade 1, n (%) [1]: 5 (83.3%) | TEAE Severity Grade 2, n (%) [1]: 0 | TEAE by system organ class: Blood and Lymphatic System Disorders, participants n (%) [1]: 0 | TEAE by system organ class: Gastrointestinal Disorders, occurrences m [1]: 1 | TEAE by system organ class: Gastrointestinal Disorders, participants n (%) [1]: 1 (16.7%) | TEAE by system organ class: General Disorders and Administration Site Conditions, occurrences m [1]: 1 | TEAE by system organ class: General Disorders and Administration Site Conditions, participants n (%) [1]: 1 (16.7%) | TEAE by system organ class: Infections and Infestations, participants n (%) [1]: 0 | TEAE by system organ class: Injury, Poisoning, and Procedural Complications, occurrences m [1]: 3 | TEAE by system organ class: Injury, Poisoning, and Procedural Complications, participants n (%) [1]: 3 (30.0%) | TEAE by system organ class: Musculoskeletal and Connective Tissue Disorders, participants n (%) [1]: 0 | TEAE by system organ class: Nervous System Disorders, occurrences m [1]: 2 | TEAE by system organ class: Nervous System Disorders, participants n (%) [1]: 2 (33.3%) | TEAE by system organ class: Respiratory, Thoracic, and Mediastinal disorders, participants n (%) [1]: 0 | TEAE by system organ class: Skin and Subcutaneous Tissue Disorders, participants n (%) [1]: 0 | TEAE by system organ class: Vascular Disorders, participants n (%) [1]: 0 | TEAE severity Grade 1, occurrences m [1]: 7 | TEAE severity Grade 1, participants n (%) [1]: 5 (83.3%) | TEAE severity Grade 2, participants n (%) [1]: 0 | TEAE severity Grade 3, participants n (%) [1]: 0 | TEAE severity Grade 4, participants n (%) [1]: 0 | TEAE severity Grade 5, participants n (%) [1]: 0 | Treatment-related TEAE: Abdominal distension, participants n (%) [1]: 0 | Treatment-related TEAE: Blood and Lymphatic System Disorders, participants n (%) [1]: 0 | Treatment-related TEAE: Constipation, participants n (%) [1]: 0 | Treatment-related TEAE: Diarrhea, participants n (%) [1]: 0 | Treatment-related TEAE: Dizziness, participants n (%) [1]: 0 | Treatment-related TEAE: Feeling hot, participants n (%) [1]: 0 | Treatment-related TEAE: Gastrointestinal Disorders, participants n (%) [1]: 0 | Treatment-related TEAE: General Disorders and Administration Site Conditions, occurrences m [1]: 1 | Treatment-related TEAE: General Disorders and Administration Site Conditions, participants n (%) [1]: 1 (16.7%) | Treatment-related TEAE: Headache, participants n (%) [1]: 0 | Treatment-related TEAE: Infusion related reaction, participants n (%) [1]: 0 | Treatment-related TEAE: Infusion site discomfort, participants n (%) [1]: 0 | Treatment-related TEAE: Infusion site pain, participants n (%) [1]: 0 | Treatment-related TEAE: Infusion site reaction, participants n (%) [1]: 0 | Treatment-related TEAE: Infusion site swelling, participants n (%) [1]: 0 | Treatment-related TEAE: Injury, Poisoning, and Procedural Complications, participants n (%) [1]: 0 | Treatment-related TEAE: Macule, participants n (%) [1]: 0 | Treatment-related TEAE: Musculoskeletal and Connective Tissue Disorders, participants n (%) [1]: 0 | Treatment-related TEAE: Myalgia, participants n (%) [1]: 0 | Treatment-related TEAE: Nervous system disorders, participants n (%) [1]: 0 | Treatment-related TEAE: Oropharyngeal pain, participants n (%) [1]: 0 | Treatment-related TEAE: Orthostatic hypotension, participants n (%) [1]: 0 | Treatment-related TEAE: Phlebitis, participants n (%) [1]: 0 | Treatment-related TEAE: Respiratory, Thoracic, and Mediastinal disorders, participants n (%) [1]: 0 | Treatment-related TEAE: Skin and Subcutaneous Tissue Disorders, participants n (%) [1]: 0 | Treatment-related TEAE: Thrombocytopenia, participants n (%) [1]: 0 | Treatment-related TEAE: Vascular Disorders, participants n (%) [1]: 0 | Treatment-related TEAE: Vessel puncture site erythema, occurrences m [1]: 1 | Treatment-related TEAE: Vessel puncture site erythema, participants n (%) [1]: 1 (16.7%) | Treatment-related TEAE: Vessel puncture site pain, participants n (%) [1]: 0 | Treatment-related TEAE: Vomiting, participants n (%) [1]: 0 | Infusion related reaction: End Date/Time [2]: Day 1/6 hours | Infusion related reaction: Severity Grade [2]: Grade 1 | Number of Participants Reporting at least: One Dose-Limiting Toxicity, n (%) (Cohort 2: […] IV 1-hr infusion (N = 6)): 0 | Number of Participants Reporting at least: One Dose-Limiting Toxicity, n (%) (Cohort 3: […] IV 1-hr infusion (N = 5)): 0 | Number of Participants Reporting at least: One Dose-Limiting Toxicity, n (%) (Cohort 3b: […] IV 2-hr infusion (N = 6)): 0 | Severity of event: Localized IRR at right arm and shoulder ache [3]: Grade 1 | Severity of event: Myalgia [3]: Grade 1 | participants with IRRs (Cohort 4, 0.5 mg/kg over 2 hours in 250 mL): 3 | IRRs, events (Cohort 4, 0.5 mg/kg over 2 hours in 250 mL, all Grade 1, no study drug interruption): 4 | Number of Participants Reporting at least: Onc TEAE Leading to Study Withdrawal, n (%) (Cohort 4: 0.5 mg/kg IV 2-hr infusion (N = 6)): 0
